Assay results: patent US9512144B2, “Imidazothiazole sufonamides as nematicides” (BAYER CROPSCIENCE AKTIENGESELLSCHAFT, priority 2013, dated 2016)

What was measured:
Meloidogyne incognita [1] = assay: Meloidogyne incognita test: compound solution poured into pots with soil (loamy sand), salad seeds, gall formation after 21 days; type: in vivo; conditions: salad in soil
Experimental: Solvent: 7 parts by weight of dimethylformamide Emulsifier: 2.5 parts by weight of alkylarylpolyglycolether To produce a suitable preparation of active compound, 1 part by weight of active compound is mixed with the stated amount of solvent and emulsifier and is diluted with water to the desired concentration. In the calculation of the concentration the soil volume has to be included. […] Further test concentrations are prepared by dilution with water. The compound solution is poured into pots filled with soil (loamy sand). A suspension containing eggs and larvae of the southern root-knot nematode (Meloidogyne incognita) is added, salad seeds are spread on the soil surface and covered with quartz sand. The salad seeds germinate and the seedlings grow. Galls develop on the roots. After 21 days the nematicidal activity is determined on the basis of the percentage of gall formation. 100% means no galls were found; 0% means the number of galls found on the roots of the treated plants was equal to that in untreated control plants.

Meloidogyne incognita [2] = assay: Meloidogyne incognita test (MELGIN): sand, salad seeds, gall formation after 14 days; type: in vivo; conditions: application rate 20 ppm, salad seedlings in sand
Experimental: Solvent: 125.0 parts by weight of acetone To produce a suitable preparation of active compound, 1 part by weight of active compound is mixed with the stated amount of solvent, and the concentrate is diluted with water to the desired concentration. Vessels are filled with sand, a solution of the active ingredient, a suspension containing eggs and larvae of the southern root-knot nematode (Meloidogyne incognita) and salad seeds. The salad seeds germinate and the seedlings grow. Galls develop in the roots. After 14 days the nematicidal activity is determined on the basis of the percentage of gall formation. 100% means that no galls were found; 0% means that the number of galls found on the roots of the treated plants was equal to that in untreated control plants.

SMILES	nematicidal activity on the basis of the percentage of gall formation (100% = no galls) (Meloidogyne incognita [2]) [%]	other results
O=C(NS(=O)(=O)c1c(F)cccc1F)c1cn2cc(C(F)(F)C(F)(F)F)sc2n1 [Example I-1-222]	100	nematicidal activity on the basis of the percentage of gall formation (100% = no galls) (Meloidogyne incognita [1]; application rate 8 ppm): 90%
O=C(NS(=O)(=O)c1c(Cl)cccc1Cl)c1cn2cc(C(F)(F)C(F)(F)F)sc2n1 [Example I-1-146]	100	nematicidal activity on the basis of the percentage of gall formation (100% = no galls) (Meloidogyne incognita [1]; application rate 8 ppm): 90%
COc1ccc(Br)c(S(=O)(=O)NC(=O)c2cn3cc(C(F)(F)C(F)(F)F)sc3n2)c1 [Example I-1-243]	100	nematicidal activity on the basis of the percentage of gall formation (100% = no galls) (Meloidogyne incognita [1]; application rate 8 ppm): 95%
CCOc1ccc(Cl)c(S(=O)(=O)NC(=O)c2cn3cc(C(F)(F)F)sc3n2)c1 [Example I-1-286]	100	nematicidal activity on the basis of the percentage of gall formation (100% = no galls) (Meloidogyne incognita [1]; application rate 1 ppm): 85%
COc1ccc(Cl)c(S(=O)(=O)NC(=O)c2cn3cc(C(F)(F)F)sc3n2)c1 [Example I-1-1, N-[(2-chloro-5-methoxyphenyl)sulfonyl]-2-(trifluoromethyl)imidazo[2,1-b][1,3]thiazole-6-carboxamide]	100	nematicidal activity on the basis of the percentage of gall formation (100% = no galls) (Meloidogyne incognita [1]; application rate 2 ppm): 95%
COc1ccc(Cl)c(S(=O)(=O)NC(=O)c2cn3c(C)c(C(F)(F)C(F)(F)F)sc3n2)c1 [Example I-1-251]	100	nematicidal activity on the basis of the percentage of gall formation (100% = no galls) (Meloidogyne incognita [1]; application rate 8 ppm): 98%
O=C(NS(=O)(=O)c1cc(C(F)(F)F)ccc1Br)c1cn2cc(C(F)(F)C(F)(F)F)sc2n1 [Example I-1-223]	100	nematicidal activity on the basis of the percentage of gall formation (100% = no galls) (Meloidogyne incognita [1]; application rate 4 ppm): 80%
Cc1c(C(F)(F)C(F)(F)F)sc2nc(C(=O)NS(=O)(=O)c3c(Cl)cccc3Cl)cn12 [Example I-1-254]	100	nematicidal activity on the basis of the percentage of gall formation (100% = no galls) (Meloidogyne incognita [1]; application rate 8 ppm): 85%
O=C(NS(=O)(=O)c1cc(Cl)ccc1Br)c1cn2cc(C(F)(F)F)sc2n1 [Example I-1-205]	100	nematicidal activity on the basis of the percentage of gall formation (100% = no galls) (Meloidogyne incognita [1]; application rate 4 ppm): 95%
CCCOc1ccc(Cl)c(S(=O)(=O)NC(=O)c2cn3cc(C(F)(F)F)sc3n2)c1 [Example I-1-207]	100	nematicidal activity on the basis of the percentage of gall formation (100% = no galls) (Meloidogyne incognita [1]; application rate 4 ppm): 95%
CC(C)Oc1ccc(Cl)c(S(=O)(=O)NC(=O)c2cn3cc(C(F)(F)F)sc3n2)c1 [Example I-1-208]	100	nematicidal activity on the basis of the percentage of gall formation (100% = no galls) (Meloidogyne incognita [1]; application rate 1 ppm): 90%
N#Cc1ccc(Cl)c(S(=O)(=O)NC(=O)c2cn3cc(C(F)(F)F)sc3n2)c1 [Example I-1-310]	90	
CCc1ccc(CC)c(S(=O)(=O)NC(=O)c2cn3cc(C(F)(F)F)sc3n2)c1 [Example I-1-305]	100	
COc1ccc(Cl)c(S(=O)(=O)NC(=O)c2cn3c(C(F)(F)F)csc3n2)c1 [Example I-1-29]	90	
O=C(NS(=O)(=O)c1cccc(Cl)c1Cl)c1cn2cc(C(F)(F)C(F)(F)F)sc2n1 [Example I-1-236]	100	
O=C(NS(=O)(=O)c1c(F)cccc1F)c1cn2cc(Cl)sc2n1 [Example I-1-20]	100	
O=C(NS(=O)(=O)c1ccccc1Cl)c1nc2sc(C(F)(F)F)cn2c1Br [Example I-3-1]	100	
O=C(NS(=O)(=O)c1cccc(Cl)c1)c1cn2cc(C(F)(F)C(F)(F)F)sc2n1 [Example I-1-143]	90	
Cc1c(C(F)(F)C(F)(F)F)sc2nc(C(=O)NS(=O)(=O)c3cccc(Cl)c3)cn12 [Example I-1-250]	90	
